In US8450342B2, “Perharidines as CDK inhibitors” (Centre Nationale de la Recherche Scientifique, priority 2008, dated 2013):
Like-named read-outs stand apart in the source and are kept apart here.

Key:
Mcl-1 = assay: Western blot, survival factor Mcl-1 in SH-SY5Y; assay type: cell-based, human; conditions: FIG. 12, compared with (R)-Roscovitine
Experimental: (§1) SH-SY5Y human neuroblastoma cells were grown in DMEM medium (Invitrogen, Cergy Pontoise, France). The HEK 293 human embryonic kidney cell line was grown in MEM medium from Invitrogen. Human foreskin primary fibroblasts (kindly provided by Dr. Gilles Ponzio) were grown in DMEM supplemented with 2 mM L-glutamine and 20 mM HEPES. All the media were supplemented with antibiotics (penicillin-streptomycin) from Lonza and 10% volume of FCS from Invitrogen. Cells were cultured at 37° C. with 5% CO2. Drug treatments were performed on exponentially growing cultures at the indicated time and concentrations. Control experiments were carried out using appropriate dilutions of DMSO. MDCK cell-lines were used to test compounds PKD.
(§2) Cells were resuspended and lysed for 30 minutes at 4° C. in Homogenization Buffer [60 mM β-glycerophosphate, 15 mM p-nitrophenyl phosphate, 25 mM MOPS (pH 7.2), 15 mM EGTA, 15 mM MgCl2, 1 mM dithiothreitol, 1 mM sodium vanadate, 1 mM NaF, 1 mM phenylphosphate, 0.1% Nonidet P-40 and protease inhibitor cocktail] and sonicated. After centrifugation (14000 rpm for 15 minutes at 4° C.), the protein concentration was determined in the supernatants by the Bradford protein assay (Bio-Rad).
(§3) Whole cell extracts were prepared in buffer containing 100 mM Tris/HCl (pH, 6.8), 1 mM EDTA, 2% SDS and protease inhibitor cocktail. […]

PARP cleavage = assay: Western blot, PARP cleavage in SH-SY5Y; assay type: cell-based, human; conditions: FIG. 15, compared with (R)-Roscovitine
Experimental: as §1, §2, §3

p53 total protein = assay: Western blot, p53 total protein in SH-SY5Y; assay type: cell-based, human; conditions: FIG. 13, compared with (R)-Roscovitine
Experimental: as §1, §2, §3

CDK1/cyclin B = CDK1/cyclin B kinase assay; assay type: biochemical, starfish
Experimental: (§4) Controls were performed with appropriate dilutions of dimethylsulfoxide.
(§5) ATP (3,000 Ci/mmol; 10 mCi/ml) in a final volume of 30 μl. After 30 min. incubation at 30° C., 25 μl aliquots of supernatant were spotted onto 2.5×3 cm pieces of Whatman P81 phosphocellulose paper, and, 20 sec. later, the filters were washed five times (for at least 5 min. each time) in a solution of 10 ml phosphoric acid/liter of water. The wet filters were counted in the presence of 1 ml ACS (Amersham) scintillation fluid.

[1] = tested on: protein phosphatase 1-α Thr320 phosphorylation; assay: Western blot, protein phosphatase 1-α phosphorylation on Thr320 in SH-SY5Y; assay type: cell-based, human; conditions: FIG. 11, compared with (R)-Roscovitine
Experimental: as §1, §2, §3

CDK2/cyclin E = CDK2/cyclin E (Homo sapiens, UniProt P24941); assay: CDK2/cyclin E kinase assay; assay type: biochemical; conditions: Table 5
Experimental: as §4
(§6) The compounds were tested at various concentrations in the kinase assays, as described in the Methods section.

LS 174T (Oncodesign) = assay: Cell survival, LS 174T (Oncodesign); assay type: cell-based; conditions: Homo sapiens, LS174T; Table 6
Erk2 = Erk2 (Homo sapiens, UniProt P28482); assay: Erk2 kinase assay; assay type: biochemical; conditions: Table 5
Erk2, sequence (P28482 whole entry, species assumed): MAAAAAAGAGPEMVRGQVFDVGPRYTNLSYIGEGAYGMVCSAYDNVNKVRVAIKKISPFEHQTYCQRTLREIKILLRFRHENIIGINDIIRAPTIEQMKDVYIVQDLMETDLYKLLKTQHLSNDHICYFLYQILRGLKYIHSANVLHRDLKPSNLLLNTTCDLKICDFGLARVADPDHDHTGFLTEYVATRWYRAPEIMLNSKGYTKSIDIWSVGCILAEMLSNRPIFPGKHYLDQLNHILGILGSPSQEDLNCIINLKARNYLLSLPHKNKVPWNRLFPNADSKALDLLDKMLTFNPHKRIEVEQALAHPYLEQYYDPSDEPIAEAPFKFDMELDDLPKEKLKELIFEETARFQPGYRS
Experimental: (§7) Blank values were subtracted and activities expressed in % of the maximal activity, i.e. in the absence of inhibitors. Controls were performed with appropriate dilutions of dimethylsulfoxide.
as §6

CDK5/p25 = biological target: T1, CDK5/p25 (Homo sapiens, UniProt Q00535); assay: CDK5/p25 kinase assay; assay type: biochemical
T1 construct: made in house
T1 sequence (Q00535 whole entry): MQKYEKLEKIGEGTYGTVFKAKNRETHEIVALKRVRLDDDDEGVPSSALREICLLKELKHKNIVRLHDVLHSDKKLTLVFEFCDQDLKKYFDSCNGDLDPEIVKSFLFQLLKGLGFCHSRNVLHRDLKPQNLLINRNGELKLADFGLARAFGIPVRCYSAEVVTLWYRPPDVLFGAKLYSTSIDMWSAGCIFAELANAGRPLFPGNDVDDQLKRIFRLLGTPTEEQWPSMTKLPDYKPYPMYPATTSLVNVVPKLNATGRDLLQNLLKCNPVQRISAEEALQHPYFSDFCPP
T1 sequence (Q15078 99-307 partner limits assumed): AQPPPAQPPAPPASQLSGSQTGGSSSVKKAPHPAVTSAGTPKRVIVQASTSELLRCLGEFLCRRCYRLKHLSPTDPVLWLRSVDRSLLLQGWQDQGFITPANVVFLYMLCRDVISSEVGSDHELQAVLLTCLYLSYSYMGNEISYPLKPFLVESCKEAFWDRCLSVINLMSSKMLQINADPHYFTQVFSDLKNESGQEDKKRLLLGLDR
Experimental: as §4, §5

DYRK1A = DYRK1A (Homo sapiens, UniProt Q13627); assay: DYRK1A kinase assay; assay type: biochemical; conditions: Table 5; read-out: DYRK1A
Experimental: as §7, §6

HCT116 (Spheroids) = assay: Cell survival, HCT116 (Spheroids); assay type: cell-based; conditions: Homo sapiens, HCT-116; Table 6
HCT116 (Oncodesign) = assay: Cell survival, HCT116 (Oncodesign); assay type: cell-based; conditions: Homo sapiens, HCT-116; Table 6
CK1δ/ε = assay: CK1 kinase assay; assay type: biochemical, porcine; conditions: read-out: CK1
Experimental: as §7

p27 total protein = assay: Western blot, p27 total protein in SH-SY5Y; assay type: cell-based, human; conditions: FIG. 14, compared with (R)-Roscovitine
Experimental: as §1, §2, §3

[2] = tested on: SH-SY5Y human neuroblastoma cells; assay: Cell survival (MTS assay), SH-SY5Y; assay type: cell-based; conditions: read-out: SH-SY5Y cell survival
Experimental: as §1, with “The HEK 293 human embryonic kidney cell line was grown in MEM medium from Invitrogen.” left out

CDK9/cyclin T = biological target: T2, CDK9/cyclin T (Homo sapiens, UniProt P50750); assay: CDK9/cyclin T kinase assay; assay type: biochemical; conditions: Table 5; read-out: CDK9/cyclin T
T2 construct: made in house; host or cells: insect cells
T2 sequence (P50750 whole entry): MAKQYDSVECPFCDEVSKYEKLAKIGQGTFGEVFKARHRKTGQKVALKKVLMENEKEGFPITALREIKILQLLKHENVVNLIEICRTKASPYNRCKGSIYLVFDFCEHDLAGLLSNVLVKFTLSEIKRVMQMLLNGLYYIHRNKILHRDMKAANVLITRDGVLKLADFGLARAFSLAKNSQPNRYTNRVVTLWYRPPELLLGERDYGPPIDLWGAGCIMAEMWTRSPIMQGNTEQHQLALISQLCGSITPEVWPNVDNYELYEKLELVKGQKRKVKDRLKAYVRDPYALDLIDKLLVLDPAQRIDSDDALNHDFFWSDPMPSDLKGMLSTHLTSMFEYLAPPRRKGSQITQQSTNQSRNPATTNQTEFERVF
T2 sequence (O60563 whole entry partner): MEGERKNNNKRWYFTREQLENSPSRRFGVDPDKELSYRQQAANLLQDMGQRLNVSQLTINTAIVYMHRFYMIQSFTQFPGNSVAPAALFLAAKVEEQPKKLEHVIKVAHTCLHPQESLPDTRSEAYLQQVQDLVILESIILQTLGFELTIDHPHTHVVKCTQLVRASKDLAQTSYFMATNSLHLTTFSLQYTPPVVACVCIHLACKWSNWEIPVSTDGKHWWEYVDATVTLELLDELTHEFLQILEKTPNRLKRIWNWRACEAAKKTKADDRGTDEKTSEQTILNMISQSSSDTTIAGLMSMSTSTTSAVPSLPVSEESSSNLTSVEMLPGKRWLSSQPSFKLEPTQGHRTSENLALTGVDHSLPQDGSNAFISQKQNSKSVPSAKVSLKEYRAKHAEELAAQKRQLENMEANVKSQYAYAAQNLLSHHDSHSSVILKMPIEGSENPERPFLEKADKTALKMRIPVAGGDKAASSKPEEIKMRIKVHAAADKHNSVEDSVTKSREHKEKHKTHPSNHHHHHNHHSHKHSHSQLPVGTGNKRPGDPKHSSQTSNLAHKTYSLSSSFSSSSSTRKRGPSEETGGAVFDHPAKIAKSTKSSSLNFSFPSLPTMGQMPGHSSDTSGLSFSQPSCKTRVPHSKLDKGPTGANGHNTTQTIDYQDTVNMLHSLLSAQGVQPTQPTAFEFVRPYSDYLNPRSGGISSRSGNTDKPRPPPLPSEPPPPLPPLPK
Experimental: as §7

GSK-3α/β = GSK-3α/β kinase assay; assay type: biochemical, porcine
Experimental: as §7

CDK2/cyclin A = biological target: T3, CDK2/cyclin A (Homo sapiens, UniProt P24941); assay: CDK2/cyclin A kinase assay; assay type: biochemical; conditions: Table 5; read-out: CDK2/cyclin A
T3 construct: made in house; host or cells: insect cells
Experimental: as §7
CDK2/cyclin A (human, recombinant, expressed in insect cells) was assayed as described for CDK1/cyclin B.

[3] = tested on: retinoblastoma protein phosphorylation; assay: Western blot, retinoblastoma protein phosphorylation on CDK2/CDK4 sites in SH-SY5Y; assay type: cell-based, human; conditions: for total Rb: FIG. 8
Experimental: as §1, with “The HEK 293 human embryonic kidney cell line was grown in MEM medium from Invitrogen.” left out
as §2
(§8) Whole cell extracts were prepared in buffer containing 100 mM Tris/HCl (pH, 6.8), 1 mM EDTA, 2% SDS and protease inhibitor cocktail. Following heat denaturation for 5 minutes, proteins were separated on 10% or 7% NuPAGE pre-cast Bis-Tris or Tris-Acetate polyacrylamide mini gels (Invitrogen) with MOPS SDS (all but cytochrome C, RNA polymerase II and phospho-Ser2—RNA polymerase II Western blots), MES SDS (cytochrome C), or Tris-Acetate SDS (RNA polymerase II and phospho-Ser2—RNA polymerase II) running buffer depending on protein size. Proteins were transferred to 0.45 μm nitrocellulose filters (Schleicher and Schuell). These were blocked with 5% low fat milk in Tris-Buffered Saline—Tween-20, incubated for 1 h with antibodies (anti-actin: 1:2000) or overnight at 4° C. (cytochome C: 1:500), Rb (1:500), phosphor-Rb (1:500), phospho-Thr320-PP1α (1:1000), RNA polymerase II (1:500), phosphor-Ser2-RNA polymerase II (1:500), Mcl-1 (1:500), caspase-9 (1:1000) and analyzed by Enhanced Chemiluminescence (ECL, Amersham).

B2-CLL lymphocytes = assay: Survival / cell death of B2-CLL lymphocytes from patients; assay type: cell-based, human
Experimental: Cell viability was determined by measuring the reduction of 3-(4,5-dimethylthiazol-2-yl)-5-(3-carboxymethoxyphenyl)-2-(4-sulfophenyl)-2/H-tetrazolium (MTS). Cell death was determined by measuring the level of lactate dehydrogenase activity (LDH) released upon cell lysis.

[4] = tested on: RNA polymerase II Ser2 phosphorylation; assay: Western blot, RNA polymerase II Ser2 phosphorylation in SH-SY5Y; assay type: cell-based, human; conditions: for total RNA pol II: FIG. 10
Experimental: as §1, §2, §8

[5] = tested on: HEK 293 human embryonic kidney cell line; assay: Cell survival (MTS assay), HEK293; assay type: cell-based
Experimental: as §1, with “The HEK 293 human embryonic kidney cell line was grown in MEM medium from Invitrogen.” left out

LS 174T = assay: Cell survival, LS 174T; assay type: cell-based; conditions: Homo sapiens, LS174T; Table 6
Experimental: Cell viability was determined by measuring the reduction of 3-(4,5-dimethylthiazol-2-yl)-5-(3-carboxymethoxyphenyl)-2-(4-sulfophenyl)-2H-tetrazolium (MTS). Cell death was determined by measuring the level of lactate dehydrogenase activity (LDH) released upon cell lysis.

CDK7/cyclin H = CDK7/cyclin H (Homo sapiens, UniProt P50613); assay: CDK7/cyclin H kinase assay; assay type: biochemical; conditions: Table 4
CDK7/cyclin H, sequence (P50613 whole entry, species assumed): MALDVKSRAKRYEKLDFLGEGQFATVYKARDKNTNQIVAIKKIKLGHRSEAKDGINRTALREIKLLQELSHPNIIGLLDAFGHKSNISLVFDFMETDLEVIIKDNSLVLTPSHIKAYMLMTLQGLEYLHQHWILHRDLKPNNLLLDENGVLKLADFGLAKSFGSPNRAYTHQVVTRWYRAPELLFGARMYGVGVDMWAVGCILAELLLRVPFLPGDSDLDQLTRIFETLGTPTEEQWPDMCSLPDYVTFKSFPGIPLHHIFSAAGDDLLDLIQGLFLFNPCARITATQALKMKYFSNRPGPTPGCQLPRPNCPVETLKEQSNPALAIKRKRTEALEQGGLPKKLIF
CDK7/cyclin H, sequence (P51946 whole entry partner, species assumed): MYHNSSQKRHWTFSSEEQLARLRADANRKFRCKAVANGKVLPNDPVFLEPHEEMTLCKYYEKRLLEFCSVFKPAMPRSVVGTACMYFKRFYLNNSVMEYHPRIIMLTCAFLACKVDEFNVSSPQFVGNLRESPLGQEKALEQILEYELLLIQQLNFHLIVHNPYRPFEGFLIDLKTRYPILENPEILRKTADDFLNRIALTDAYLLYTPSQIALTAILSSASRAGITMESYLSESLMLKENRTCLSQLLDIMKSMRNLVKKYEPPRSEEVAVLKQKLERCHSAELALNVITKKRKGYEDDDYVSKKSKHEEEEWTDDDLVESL
Experimental: as §7, §6

cell lines = assay: Anti-proliferative activities on cell lines, summary; assay type: cell-based; conditions: in words; listed as formula Ib
[6] = Table 5, read-out: CDK1/cyclin B
[7] = Homo sapiens, Lymphocyte, LLC B-cells, read-out: Cell death induction
[8] = Homo sapiens, Lymphocyte, Table 6, read-out: Chronic Lymphocytic Leukemia cell survival

| IC50 (CDK1/cyclin B; [6]) | IC50 (CDK2/cyclin E) | IC50 (Erk2) | IC50 (CDK5/p25; Table 5, read-out: CDK5/p25) | IC50 (DYRK1A) | IC50 (CK1δ/ε; Table 5) | IC50 (CDK9/cyclin T) | IC50 (GSK-3α/β; Table 5, read-out: GSK-3α/β) | IC50 (CDK2/cyclin A) | SMILES | IC50 (HCT116 (Spheroids)) | IC50 ([2]; Table 6, MTS assay) | total Rb [3] | IC50 (B2-CLL lymphocytes; [7]) | IC50 (B2-CLL lymphocytes; [8]) | total RNA pol II [4] | IC50 ([5]; HEK293, Table 6, MTS assay) | IC50 (LS 174T) | also measured |
| --- | --- | --- | --- | --- | --- | --- | --- | --- | --- | --- | --- | --- | --- | --- | --- | --- | --- | --- |
| 430 nM | 180 nM | 7000 nM | 400 nM | 2800 nM | 11000 nM | 480 nM | > 100000 nM | 300 nM | CC[C@H](CO)Nc1cc(NCc2ccccc2)c2ncn(C(C)C)c2n1 [(R)-perharidine A] | 10000 nM | 14300 nM | essentially constant | 7050 nM | 7050 nM | essentially constant | 27400 nM | 21500 nM | IC50 (CDK1/cyclin B; Table 4, read-out: CDK1): 350 nM; IC50 ([5]; HEK293, Table 4, MTS assay): 35600 nM; IC50 (CDK5/p25; Table 4, read-out: CDK5): 200 nM; IC50 (CK1δ/ε; Table 4): 4000 nM; IC50 ([2]; Table 4, MTS assay): 16200 nM; IC50 (GSK-3α/β; Table 4, read-out: GSK3): > 30000 nM; IC50 (CDK7/cyclin H): 900 nM |
| 730 nM | 310 nM | 9000 nM | 500 nM | 22000 nM | 4800 nM | 1300 nM | > 30000 nM | 420 nM | CC[C@@H](CO)Nc1cc(NCc2ccccc2)c2ncn(C(C)C)c2n1 [(S)-perharidine B, (S)-7-Benzylamino-5-[(2-butyl-1-ol)amino]-3-iso-propylimidazo[4,5-b]pyridine] |  | 28000 nM | essentially constant | 15300 nM | 15300 nM | essentially constant | 45000 nM | 37500 nM | anti-proliferative activities compared with (R)-Roscovitine (cell lines): somewhat less efficient |

| SMILES | IC50 (CDK1/cyclin B; [6]) | IC50 (CDK2/cyclin E) | IC50 (Erk2) | IC50 (CDK5/p25; Table 5, read-out: CDK5/p25) | IC50 (DYRK1A) | IC50 (CK1δ/ε; Table 5) | IC50 (CDK9/cyclin T) | IC50 (GSK-3α/β; Table 5, read-out: GSK-3α/β) | IC50 (CDK2/cyclin A) | IC50 (HCT116 (Spheroids)) | IC50 ([2]; Table 6, MTS assay) | total Rb [3] | IC50 (B2-CLL lymphocytes; [7]) | IC50 (B2-CLL lymphocytes; [8]) | total RNA pol II [4] | IC50 ([5]; HEK293, Table 6, MTS assay) | IC50 (LS 174T) | also measured |
| --- | --- | --- | --- | --- | --- | --- | --- | --- | --- | --- | --- | --- | --- | --- | --- | --- | --- | --- |
| CC[C@H](CO)Nc1cc(NCc2ccc(-c3ccccn3)cc2)c2ncn(C(C)C)c2n1 [(R)-perharidine C] | 460 nM | 250 nM | 22000 nM | 600 nM | 11000 nM | 1100 nM | 530 nM | 11000 nM | 360 nM | 350 nM | 1460 nM | essentially constant | 310 nM | 310 nM | essentially constant |  |  | down-regulation of survival factor Mcl-1 (Mcl-1): at lower concentration than (R)-Roscovitine; PARP cleavage (PARP cleavage): at lower concentration than (R)-Roscovitine; p53 total protein expression (p53 total protein): at lower concentration than (R)-Roscovitine; inhibition of CDK1/cyclin B in cells (protein phosphatase 1-α Thr320 phosphorylation) [1]: at lower concentration than (R)-Roscovitine; IC50 (LS 174T (Oncodesign)): 290 nM; IC50 (HCT116 (Oncodesign)): 600 nM; p27 total protein down-regulation (p27 total protein): at lower concentration than (R)-Roscovitine; inhibition of CDK2/4 in cells (retinoblastoma protein phosphorylation) ([3]; compared with (R)-Roscovitine): at lower concentrations than (R)-Roscovitine; IC50 (B2-CLL lymphocytes; LLC B-cells, read-out: Cell death induction): 280 nM; inhibition of CDK9 in cells (RNA polymerase II Ser2 phosphorylation) ([4]; FIG. 9, compared with (R)-Roscovitine): at lower concentration than (R)-Roscovitine |
